Reference: patent US20250108070A1, “METHOD FOR REPROGRAMMING CD8+ T CELLS TO ENHANCE THEIR THERAPEUTIC POTENTIAL AND APPLICATIONS THEREOF” (INSTITUT PASTEUR, priority 2022, published 2025)

How the values were obtained:
[1] = system: human CD8+ T cells; assay: Screening of GSK3 inhibitors: cytokine polyfunctionality (IFN-γ+TNF-α+) of CD8+ T cells after anti-CD3/anti-CD28 stimulation; type: cell-based; details: FIG. 12A, in words
Experimental: (§1) FIG. 12. Screening molecules for reprogramming human CD8^+ T cells Total CD8^+ T cells were purified and treated for 12 hs with titrated doses of GSK3 inhibitors or DMSO vehicle control. After drug washout, cells were stimulated for 48 hs with plate-bound anti-CD3/anti-CD28 antibodies (at 1 mg/mL), followed by flow cytometry analyses. A. Upon stimulation, intracellular cytokine and phospho-protein staining was performed, the latter for the detection of phospho-S6 and phospho-AKT proteins (indicative of activation of mTORC1 and mTORC2 pathways, respectively). The fold change in the frequency of IFN-γ^+TNF-α^+ and pS6^+pAKT^+ cells induced by the treatment with each GSK3 inhibitor, relative to DMSO control, was analyzed. […] B. Fold change in the expression of the indicated markers and memory phenotypes induced by anti-CD3/anti-CD28 antibody stimulation relative to unstimulated cells (at least 3 donors per condition). TCM: T central memory; TEM: T effector memory; TTM: T transitional memory; TTE: T terminal effector; TSCM: T stem cell memory.
(§2) For reprogramming of CD8^+ T cells followed by polyclonal stimulation, cells were isolated by negative magnetic bead sorting (Stemcell Technologies). For reprogramming of CD8^+ T cells followed by antigen-specific stimulation, PBMC and magnetically separated CD8^+ T cells and non-CD8^+ T cells were used (REAlease® CD8 MicroBead Kit; Miltenyi Biotech). Then, CD8^+ T cells were treated with a GSK3 inhibitor (6-Bromoindirubin-3′-oxime; BIO; Sigma-Aldrich), at 3 μM, or an equivalent concentration of dimethyl sulfoxide (DMSO) vehicle control, in complete medium, for 12 hs at 37° C., 5% CO2. Non-CD8 cells were left resting during this time in complete medium. CD8^+ T cells were washed with complete medium and stimulated with the peptide pool in presence of non-CD8 T cells.
(§3) In some experiments, cells were culture in RPMI medium without glucose (MP Biomedicals). CD8^+ T cell proliferation was evaluated by CFSE dilution (at 1 μM, Thermo Fisher Scientific). In additional experiments, reprogrammed CD8^+ T cells were stimulated with IL-7 or IL-15 (both at 10 ng/mL; R&D) and cultured for 6 days. In all the cases, cells were cultured at a density of 2×10^6 cells/mL.
(§4) After cultures, cells were stained with the LIVE/DEAD Fixable Aqua Dead Cell Stain kit (Thermo Fisher Scientific), with anti-CD3 Alexa Fluor 700 or APC efluor 780 and anti-CD8 PE Texas Red antibodies, accordingly. […] In some experiments, cells were stained with APC-conjugated dextramers (Immudex), incubated for 15 minutes at room temperature. Additional surface staining panels included anti-HLA-DR Superbright 780, anti-CD38 Superbright 600, anti-PD-1 BV421, anti-LAG-3 APC efluor 780, anti-TIM3 PE Cy7, and anti-TIGIT BV786 antibodies, or anti-CD122 PE and anti-CD215 FITC antibodies. The BD Transcription Factor Buffer Set kit (BD Biosciences) was used for cell fixation and permeabilization. […] Cell acquisition was performed using LSR II or ARIA III flow cytometers (both from BD Biosciences), and data were analyzed with FlowJo v.10 software (BD Biosciences).
(§5) The inventors explored GSK3 inhibitors to expand the array of molecules that could be used for CD8^+ T cell reprogramming. They implemented a screening approach that combined the evaluation of cytokine polyfunctionality of CD8^+ T cells (IFN-γ+TNFα+) vs the activation of mTORC1 and mTORC2 pathways (pS6+pAKT+) upon treatment with the GSK3 inhibitors and subsequent polyclonal stimulation.

[2] = system: GSK3; details: cited from earlier work
[3] = system: mTORC1 and mTORC2 pathways; assay: Screening of GSK3 inhibitors: phospho-S6 / phospho-AKT staining (activation of mTORC1 and mTORC2 pathways); type: cell-based, human; details: FIG. 12A, in words
Experimental: as §1, §2, §3, §4, §5

[4] = system: human CD8+ T cells; assay: Screening of GSK3 inhibitors: markers and memory phenotypes by flow cytometry; type: cell-based; details: FIG. 12B, in words
Experimental: as §1, §2, §3, §4

For `O=C1Nc2cc(Br)ccc2/C1=C1/Nc2ccccc2/C1=N\O` [BIO, 6-bromoindirubin-3′-oxime], the “IFN-γ+TNF-α+ cells (polyfunctionality) relative to vehicle control” value [1] is listed as “promoted”, the beta-catenin phosphorylation ([2]; Meijer L et al., 2003) is listed as “reduces” and the “phosphorylation on Tyr276/216 GSK3a/p activation site” value ([2]; Meijer L et al., 2003) is listed as “inhibits”. For the same compound, the Wnt/β-catenin/TCF-1 pathway ([2]; reference 42) was “induce the activation”, the “frequency of pS6+pAKT+ cells / activation of mTORC pathway” value [3] was “lower frequency” and the “CD127+ T-bet− phenotype” value [4] was “preserved”. For the same compound, the “acquisition of T-bet, HLA-DR and CD38, PD-1 and LAG-3” value [4] was “restrained” and the “phenotype / profile promoted in CD8+ T cells” value [4] was “promoted a less-differentiated phenotype”.
